Here are results for two compounds from article PMC11280325, “Design, Synthesis, and Characterization of Novel Thiazolidine-2,4-Dione-Acridine Hybrids as Antitumor Agents” (Molecules, 2024).

Like-named read-outs stand apart in the source and are kept apart here.

Data set [1] deals with PATU. As to conditions: cisplatin reference, 48 h; cited from earlier work.
In data set [2] the test system is HCT116. The conditions noted are these: cisplatin reference, 48 h; cited from earlier work.
Data set [3] relates to A549. As to conditions: cisplatin reference, 48 h; cited from earlier work.
For data set [4], the system named is HeLa. The conditions noted are these: cisplatin reference, 48 h; cited from earlier work.
The test system of data set [5] is Bj-5ta. The conditions noted are these: cisplatin reference, 48 h; cited from earlier work.
Data set [6] concerns MCF-10A. As to conditions: cisplatin reference, 48 h; cited from earlier work.
In data set [7] the test system is A2058. As to conditions: cisplatin reference, 48 h; cited from earlier work.
Data set [8] deals with Hep G2. The conditions noted are these: cisplatin reference, 48 h; cited from earlier work.
Data set [9] has as its system PATU. Briefly: MTT assay, PATU 8902. The class given is cell-based, human. The conditions noted are these: Homo sapiens, PaTu 8902, 48 h, pancreas adenocarcinoma, 48 h incubation. Summed up: (§1)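 Antiproliferative IC50 came from MTT absorbance (540 nm, SDS-solubilized) after 48 h treatment at four concentrations, 5-50 µmol/L, applied to cells plated 24 h earlier. Media: RPMI 1640 for HeLa and HCT116, DMEM for A2058 and PATU 8902, each with 10% FBS; nonlinear regression, at least three experiments.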

The test system of data set [10] is MCF-10A. Briefly: MTT assay, MCF-10A non-cancerous cells. It is filed as cell-based, human. The conditions noted are these: Homo sapiens, MCF-10A, 48 h, non-cancerous epithelial breast cells, 48 h incubation. Summed up: (§2)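 IC50 by nonlinear regression from MTT absorbance (540 nm, SDS-dissolved formazan), at least three repeats. Non-cancerous human lines, MCF-10A and BJ-5ta fibroblasts, were treated 48 h with 5, 10, 20 and 50 µmol/L compound, added 24 h after seeding.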

Data set [11] concerns A549. Nature of the data set: MTT assay, A549. It is filed as cell-based, human. The conditions noted are these: Homo sapiens, A549, 48 h, lung adenocarcinoma, 48 h incubation. Summed up: (§3)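 5–10 × 10^3 cells/well, 24 h attach → compound 5, 10, 20, 50 µmol/L in medium, 48 h → MTT → 10% SDS, 24 h → A540. IC50 by nonlinear regression, n ≥ 3.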
Data set [12] deals with A2058. Briefly: MTT assay, A2058. The class given is cell-based. As to conditions: Homo sapiens, A2058, 48 h, human melanoma, 48 h incubation. In a few lines:
as §1

Data set [13] concerns Bj-5ta. Briefly: MTT assay, BJ-5ta non-cancerous fibroblasts. It is filed as cell-based, human. As to conditions: Homo sapiens, Fibroblast, 48 h, non-cancerous dermal fibroblasts, 48 h incubation. Summed up: as §2
Data set [14] has as its system Hep G2. Briefly: MTT assay, Hep G2. It is filed as cell-based, human. The conditions noted are these: Homo sapiens, HepG2, 48 h, hepatocellular carcinoma, 48 h incubation. In a few lines: as §3
In another data set the test system is A2780. Briefly: MTT assay, A2780. It is filed as cell-based, human. As to conditions: Homo sapiens, A2780, 48 h, ovarian adenocarcinoma, 48 h incubation. Summed up:
as §3

Data set [15] addresses T1, bovine serum albumin (BSA) (Bos taurus, UniProt P02769).
T1 construct: purchased Sigma-Aldrich
Briefly: BSA fluorescence quenching (Stern–Volmer). It is filed as binding. The source says:
BSA contains 582 amino acid residues, including tyrosine (Tyr), phenylalanine (Phe), and tryptophan (Trp). The tryptophan residues located at positions 134 and 212 being predominantly responsible for its intrinsic fluorescence due to their higher quantum yield than the other amino acids. When excitation occurs at 280 nm, both Trp and Tyr contribute to the fluorescence of the protein [44]. In this study, we investigated the interaction of newly synthesized derivatives (7e·2HCl, 12d·2HCl, 13c·HCl, and 13d), which have promising anticancer properties, with BSA. BSA (1 μM) was titrated with increasing concentration of acridine derivatives, and fluorescence spectra were recorded in the range of 300–500 nm (Figure 10). The fluorescence quenching for the quencher (Q) and protein interaction was analyzed using the Stern–Volmer equation [45, 46]: F0/F=1+Ksv [Q]=1+Kq τ0[Q] where F0 and F denote the fluorescence intensities in the absence and presence of the quencher Q, respectively. Ksv is the Stern–Volmer constant, kq is the bimolecular quenching rate constant (kq = Ksv/τ0), and τ0 is the lifetime of BSA in the absence of quencher, which is equal to 10^−8 s for the tryptophan fluorescence of proteins.
The fluorescence spectra were recorded using a Varian Cary Eclipse spectrofluorometer (Palo Alto, CA, USA) in a 10 mM phosphate-buffered saline solution (pH = 7.4) at 24 °C. The spectra were measured with an excitation wavelength of 280 nm using a slit width of 10 nm for both the excitation and emission beams over a range of 300–450 nm. Spectrofluorometric BSA titrations were performed with increasing concentrations of acridine derivatives.

Data set [16] deals with HCT116. Briefly: MTT assay, HCT116. The class given is cell-based, human. As to conditions: colorectal adenocarcinoma, 48 h incubation. Summed up: as §1
Data set [17] deals with HeLa. Briefly: MTT assay, HeLa. The class given is cell-based, human. The conditions noted are these: Homo sapiens, HeLa, 48 h, cervical adenocarcinoma, 48 h incubation. Summed up:
as §1

T1 sequence (P02769 25-607): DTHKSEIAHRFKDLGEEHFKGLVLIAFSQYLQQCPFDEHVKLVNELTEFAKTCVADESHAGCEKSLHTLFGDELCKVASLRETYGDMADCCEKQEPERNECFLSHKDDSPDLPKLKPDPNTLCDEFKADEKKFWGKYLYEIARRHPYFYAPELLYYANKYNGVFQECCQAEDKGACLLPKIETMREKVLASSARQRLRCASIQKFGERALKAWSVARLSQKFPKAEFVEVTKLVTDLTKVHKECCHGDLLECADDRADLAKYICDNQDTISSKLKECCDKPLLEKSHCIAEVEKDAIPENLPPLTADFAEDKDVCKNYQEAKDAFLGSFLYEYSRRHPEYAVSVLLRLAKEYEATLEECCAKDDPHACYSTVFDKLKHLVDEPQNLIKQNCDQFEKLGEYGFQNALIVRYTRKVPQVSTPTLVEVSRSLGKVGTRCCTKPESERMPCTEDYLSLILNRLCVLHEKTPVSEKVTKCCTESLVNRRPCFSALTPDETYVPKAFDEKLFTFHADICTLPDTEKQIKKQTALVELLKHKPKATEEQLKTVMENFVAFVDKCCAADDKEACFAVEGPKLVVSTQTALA

Take `N.N.[Cl][Pt][Cl]` [Cisplatin]: the IC50 is 20.7 ± 3.1 µM in the data set with PATU [1]; 14.5 ± 2.5 µM in the data set with HCT116 [2]; 17.3 ± 2.2 µM in the data set with A549 [3]; 30.4 ± 1.4 µM in the data set on HeLa [4]; 31 ± 0.7 µM in the data set with Bj-5ta [5]; 25.9 ± 2.1 µM with MCF-10A [6]. The IC50 was 18.8 ± 5.5 µM with A2058 [7] and 14 ± 2.8 µM with Hep G2 [8].

For `COc1cc(/C=C2\SC(=O)N(Cc3cccc4cc5ccccc5nc34)C2=O)ccc1OCC(=O)Nc1ccc([N+](=O)[O-])cc1` [Compound 13d, 2-(4-{[(5Z)-3-[(Acridin-4-yl)methyl]-2,4-dioxo-1,3-thiazolidin-5-ylidene]methyl}-2-methoxyphenoxy)-N-(4-nitrophenyl)acetamide], the melting point is 254 to 257 °C (dec.). This compound displayed an IC50 in the data set with PATU [9] of more than 50 µM. In the data set on MCF-10A [10], the half-maximal inhibitory concentration (IC50) was more than 50 µM. In the data set with A549 [11], this compound showed an IC50 of 46.9 ± 3.1 µM. Further, in the data set with A2058 [12], the IC50 was 38.1 ± 1.65 µM. Further, the IC50 with Bj-5ta [13] was found to be 38.5 ± 4.5 µM. This compound also displayed an IC50 with Hep G2 [14] of more than 50 µM. Moreover, in the data set on A2780, the IC50 is more than 50 µM. Also, in data set [15] (BSA 1 μM, excitation 280 nm, PBS pH 7.4, 24 °C), the “Stern–Volmer quenching constant Ksv” value is 9.59 × 10^4 [M^−1]. For the same compound, the “bimolecular quenching rate constant kq” value in [15] (kq = Ksv/τ0, τ0 = 10^−8 s, BSA, pH 7.4, 24 °C) was 9.59 × 10^12 [M^−1·s^−1]. This compound also yielded an IC50 in the data set with HCT116 [16] of 4.9 ± 2.9 µM. The same compound yielded an IC50 in the data set with HeLa [17] of 36.2 ± 5.23 µM.
